Read-outs that look alike come from different tables or passages of the source.
Key:
[1] = test system: release of mediators, e.g. histamine and SRS-A; conditions: administered to asthmatic patients prior to inhalation of specific antigens; cited from earlier work
[2] = must be administered by inhalation; cited from earlier work
[3] = test system: rat Passive Cutaneous Anaphylaxis (PCA) response; assay: reagin-mediated rat Passive Cutaneous Anaphylaxis (PCA) screening test; format: in vivo, rat (Sprague-Dawley)
Protocol: The reagin-mediated rat Passive Cutaneous Anaphylaxis (PCA) screening test used to evaluate the present compounds is generally regarded as one of the best animal models for use in predicting the antiallergy activity of test compounds in man. Briefly, the method consists of passive sensitization of skin sites on the test animals with reaginic antibodies followed after 24 hours by administration of the test drug and antigen challenge. The allergic response is measured by use of Evans' blue dye and is evaluated by the spot diameter at the injection site. Details of the test are provided below.
A substituted ovalbumin antigen is used both as immunogen and challenging antigen. The antigen is prepared as follows: 500 mg. ovalbumin (EA) and 500 mg. K2 CO3 are dissolved in 25 ml. distilled H2 O and stirred at room temperature for 5 minutes. Five hundred (500) mg. dinitrobenzene sulfonic acid, Na^+ salt, (previously recrystallized from hot absolute ethanol) is then added slowly with continued stirring. The reaction mixture is then immediately placed in the dark and allowed to proceed for 2 hours with constant stirring. After 2 hours the mixture is placed in suitable dialysis tubing and dialyzed against 5 changes (4 liters each) of distilled H2 O at 5° C. After dialysis the product is lyophilized and stored at room temperature in a brown or amber container. The antigen obtained will appear as a light yellow, amorphous solid which is very soluble in water or saline. It is designated as DNP denatured ovalbumin (DNP-d EA).
Adult, male Sprague-Dawley rats are used as a source of reagin-rich antisera for the PCA model. Immunization is by a combination of DNP-d EA on Al(OH)3 gel and B. pertussis vaccine. Preparation of the DNP-d EA-gel immunogen is as follows: Dissolve the DNP-d EA in TBS so as to give a concentration of 10 mg./ml. Slowly add 1 ml. of this solution to 10 ml. Al(OH)3 gel (10 mg. solids/ml.) with constant stirring at room temperature. Stir the mixture an additional 30 minutes to insure a uniform adsorption of antigen on gel.
The resulting preparation is then used in combination with phase I B. pertussis vaccine to immunize male S/D rats as follows: For each rat administer 0.1 ml. DNP-d EA-gel suspension intramuscularly in each hind leg (200 μg DNP-d EA and 2 mg. gel total dose). Follow these injections by the intraperitoneal administration of 1.0 ml. B. pertussis vaccine (10-20 × 10^9 organisms). The use of light ether anesthesia during this procedure is recommended to insure proper intramuscular and intraperitoneal injections. Nine days following immunization (but no longer than 10) the animals are exsanguinated by cardiac puncture or abdominal aorta cannulation under ether or pentobarbital anesthesia. The collected whole blood is allowed to clot, the serum separated by centrifugation and the individual serum samples stored frozen until assayed for IgE content.
Individual serum samples should be screened for reaginic antibody concentration before being pooled with other sera, as not all rats respond to immunization procedures with reagin production. A 1:50 saline dilution of serum from each immunized rat is used for this purpose. Intradermal injections of 0.05 ml. of the diluted sera are made in the shaven backs of two small female recipient rats, 100-120 gms. Several serum samples can be tested simultaneously in recipient animals. After a 24 to 48 hour latent period antigen challenge is accomplished by intravenous administration to each rat of 1 mg. DNP-d EA in 0.5 ml. of 0.5% Evans' blue dye in saline. Sera which show positive PCA reactions at the 1:50 dilution, as measured 20 to 30 minutes post-challenge are pooled, dispensed in small aliquots and stored at -70° C. or lower until used. Negative sera may be discarded.
The IgE titer of the antisera pool should then be determined. […]

[4] = treatment of bronchial asthma; cited from earlier work
[5] = iv, test compounds given 1-5 min prior to antigen challenge, DSCG at time of challenge, read-out: ID50 (dose of compound that inhibits 50% of the response), i.v.
[6] = po, 10 min prior to antigen challenge, read-out: ID50 (dose of compound that inhibits 50% of the response), p.o.

| Structure (SMILES) | ED50 [3, 6] [mg/kg] | further results |
| --- | --- | --- |
| O=C(O)c1cc(=O)c2c(OCC(O)COc3cccc4oc(C(=O)O)cc(=O)c34)cccc2o1 [DSCG, Disodium cromoglycate, reference compound] | > 30 | inhibition of release of mediators, e.g. histamine and SRS-A [1]: inhibits the release of mediators; oral absorption [2]: not orally absorbed; ED50 [3, 5]: ~0.6 mg/kg |
| O=c1c(-c2nnn[nH]2)cnc2ccccn12 [Example 1, 3-(1H-Tetrazol-5-yl)-4H-pyrido[1,2-a]pyrimidin-4-one] | ~0.1 | ED50 [3, 5]: 0.06 mg/kg |
| Cc1ccc2ncc(-c3nnn[nH]3)c(=O)n2c1 [Example 4, 7-Methyl-3-(1H-tetrazol-5-yl)-4H-pyrido[1,2-a]pyrimidin-4-one] | ~0.1 |  |
| Cc1ccn2c(=O)c(-c3nnn[nH]3)cnc2c1 [Example 5, 8-Methyl-3-(1H-tetrazol-5-yl)-4H-pyrido[1,2-a]pyrimidin-4-one] | 2.4 |  |
| CCc1ccc2ncc(-c3nnn[nH]3)c(=O)n2c1 [Example 6, 7-Ethyl-3-(1H-tetrazol-5-yl)-4H-pyrido[1,2-a]pyrimidin-4-one] | 0.04 |  |
| CCCCc1ccc2ncc(-c3nnn[nH]3)c(=O)n2c1 [Example 7, 7-n-Butyl-3-(1H-tetrazol-5-yl)-4H-pyrido[1,2-a]pyrimidin-4-one] | ~0.1 |  |
| O=c1c(-c2nnn[nH]2)cnc2ccc(-c3ccccc3)cn12 [Example 8, 7-Phenyl-3-(1H-tetrazol-5-yl)-4H-pyrido[1,2-a]pyrimidin-4-one] | 0.05 |  |
| O=c1c(-c2nnn[nH]2)cnc2ccc(Cl)cn12 [Example 9, 7-Chloro-3-(1H-tetrazol-5-yl)-4H-pyrido[1,2-a]pyrimidin-4-one] | ~0.07 |  |
| Cc1cccn2c(=O)c(-c3nnn[nH]3)cnc12 [Example 10, 9-Methyl-3-(1H-tetrazol-5-yl)-4H-pyrido[1,2-a]pyrimidin-4-one] | 0.0066 |  |
| Cc1cc(C)c2ncc(-c3nnn[nH]3)c(=O)n2c1 [Example 11, 7,9-Dimethyl-3-(1H-tetrazol-5-yl)-4H-pyrido[1,2-a]pyrimidin-4-one] | 0.014 |  |
| CCc1cccn2c(=O)c(-c3nnn[nH]3)cnc12 [Example 12, 9-Ethyl-3-(1H-tetrazol-5-yl)-4H-pyrido[1,2-a]pyrimidin-4-one] | ~0.0033 |  |
| CN1[C@@H]2CC[C@H]1C[C@@H](OC(=O)C(CO)c1ccccc1)C2 (stereo partly drawn) [atropine] |  | side effects [4]: cardiac stimulation and gastrointestinal distress |
| CNC[C@H](O)c1ccc(O)c(O)c1 [epinephrine] |  | side effects [4]: cardiac stimulation and gastrointestinal distress |
| CC(C)NCC(O)c1ccc(O)c(O)c1 (stereo not drawn) [isoproterenol] |  | side effects [4]: cardiac stimulation and gastrointestinal distress |

— patent publication US4122274A, “3-Tetrazolo-5,6,7,8-substituted-pyrido[1,2-a]pyrimidin-4-ones” (priority 1977, dated 1978)
